Experimental data reported in patent US4508727A, “Antihypertensive 2-oxo-imidazolidine derivatives” (Tanabe Seiyaku Co., Ltd., priority 1982, dated 1985).

Tests used:
[1] = biological target: T1, angiotensin-converting enzyme (ACE) isolated from pig's renal cortex (Sus scrofa, UniProt F1RRW5); assay: ACE-inhibitory activity in vitro; assay type: biochemical; conditions: substrate hippuryl-histidyl-leucine, 37° C., 20 minutes
T1 construct: isolated from pig's renal cortex; from tissue; host or cells: pig renal cortex
T1 sequence (F1RRW5 34-1309): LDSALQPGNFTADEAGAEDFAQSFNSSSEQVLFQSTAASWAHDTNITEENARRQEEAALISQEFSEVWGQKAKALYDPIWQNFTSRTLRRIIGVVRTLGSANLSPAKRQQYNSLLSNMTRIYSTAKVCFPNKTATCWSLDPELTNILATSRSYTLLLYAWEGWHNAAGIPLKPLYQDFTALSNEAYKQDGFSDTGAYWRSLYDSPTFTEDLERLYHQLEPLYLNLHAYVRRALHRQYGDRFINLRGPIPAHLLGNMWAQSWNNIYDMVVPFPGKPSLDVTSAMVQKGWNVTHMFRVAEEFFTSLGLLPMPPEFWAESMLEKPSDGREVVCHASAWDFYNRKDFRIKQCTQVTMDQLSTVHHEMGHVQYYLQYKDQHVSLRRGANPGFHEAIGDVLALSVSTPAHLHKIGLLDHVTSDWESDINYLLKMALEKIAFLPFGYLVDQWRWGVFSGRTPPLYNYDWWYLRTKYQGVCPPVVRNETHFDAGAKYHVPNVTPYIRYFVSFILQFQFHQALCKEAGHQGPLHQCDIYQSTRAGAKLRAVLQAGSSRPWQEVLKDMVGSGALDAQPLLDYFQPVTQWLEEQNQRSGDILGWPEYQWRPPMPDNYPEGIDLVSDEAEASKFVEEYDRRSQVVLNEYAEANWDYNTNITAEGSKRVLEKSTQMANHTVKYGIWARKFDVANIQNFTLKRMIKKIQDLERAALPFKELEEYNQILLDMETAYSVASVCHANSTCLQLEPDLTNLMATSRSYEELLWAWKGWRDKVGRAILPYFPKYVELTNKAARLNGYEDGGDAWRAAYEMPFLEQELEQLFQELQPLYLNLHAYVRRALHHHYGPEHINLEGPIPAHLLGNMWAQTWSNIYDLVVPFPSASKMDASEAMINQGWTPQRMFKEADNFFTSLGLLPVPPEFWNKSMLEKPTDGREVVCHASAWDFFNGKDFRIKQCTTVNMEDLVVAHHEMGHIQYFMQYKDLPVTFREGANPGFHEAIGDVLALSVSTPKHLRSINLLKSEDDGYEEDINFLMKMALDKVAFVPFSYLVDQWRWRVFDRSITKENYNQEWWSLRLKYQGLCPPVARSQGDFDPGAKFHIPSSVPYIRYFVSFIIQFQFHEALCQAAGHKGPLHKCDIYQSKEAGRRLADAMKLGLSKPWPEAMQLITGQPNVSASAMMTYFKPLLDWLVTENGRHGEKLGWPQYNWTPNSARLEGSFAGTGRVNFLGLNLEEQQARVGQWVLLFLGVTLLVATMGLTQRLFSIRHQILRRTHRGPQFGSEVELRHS
Method: 50 μl of a solution containing 0.01 mole/liter of hippuryl-histidyl-leucine (substrate) and 0-100 μl of a test compound solution were added to 300 μl of a 0.2M tris-hydrochloric acid buffer solution containing 0.2 mole/liter of sodium chloride. The total volume of said mixture was adjusted to 450 μl with water. Then, 50 μl of angiotensin-converting enzyme (ACE) isolated from pig's renal cortex were added to the mixture, and the mixture was allowed to stand at 37° C. for 20 minutes. The amount of histidyl-leucine produced from the substrate by the action of ACE was assayed microbiologically by the use of Leuconostoc mesenteroides P-60, and the ACE-inhibitory activity of the test compound was estimated therefrom.

ACE [2] = assay: ACE-inhibitory activity in vivo, pressor response to angiotensin I, intravenous, rats; set-up: species or system rat; conditions: normotensive rats, 10 γ/kg intravenously, angiotensin I 300 ng/kg
Method: (§1) Normotensive rats and normotensive cats were anesthetized with urethane (1.2 g/kg, s.c.), and angiotensin I (rat: 300 ng/kg, cat: 600 ng/kg) was injected into the jugular vein of the rats and the femoral vein of the cats. The pressor response to angiotensin I was measured with a pressure transducer connected to the carotid artery. Then, a test compound was injected intravenously thereto at a dose of 10 γ/kg, and angiotensin I (rat: 300 ng/kg, cat: 600 ng/kg) was further injected intravenously at intervals. The ACE-inhibitory activity of the test compound was estimated by dose-response curve measured from the pressor responses to angiotensin I which were obtained before and after intravenous injection of the test compound.

ACE [3] = assay: ACE-inhibitory activity in vivo, pressor response to angiotensin I, intravenous, cats; set-up: species or system cat; conditions: normotensive cats, 10 γ/kg intravenously, angiotensin I 600 ng/kg
Method: as §1

mice = assay: toxicity, intravenous administration to mice; assay type: in vivo; conditions: 1000 mg/kg intravenously, 7 days after the administration
Method: Further, the toxicity of the compound (I) of the invention is remarkably low. For example, when (4S)-1-benzyl-3-{(2 S)-2-[N-((1S)-1-carboxy-3-phenylpropyl)amino]propionyl}-2-oxo-imidazolidine-4-carboxylic acid and (4S)-1-methyl-3-{(2S)-2-[N-((1S)-1-carboxy-n-nonyl)amino]propionyl}-2-oxo- imidazolidine-4-carboxylic acid were administered intravenously to mice at the dose of 1000 mg/kg, no mice died 7 days after the administration. Thus, angiotensin-dependent hypertension in mammals can be alleviated by administration of the compound (I) of the present invention or a pharmaceutically acceptable salt thereof.

ACE [4] = assay: ACE-inhibitory activity in vivo, pressor response to angiotensin I, oral, rats; set-up: species or system rat; conditions: for ACE-inhibitory activity (%): normotensive rats, 1 mg/kg orally, angiotensin I 300 ng/kg i.v.
Method: Normotensive rats were anesthetized with urethane (1.2 g/kg, s.c.), and angiotensin I (300 ng/kg) was injected into the jugular vein of the rats. The pressor response to angiotensin I was measured with a pressure transducer connected to the carotid artery. Then, a test compound was administered orally thereto at a dose of 1 mg/kg, and angiotensin I (300 ng/kg) was further injected intravenously at intervals. The ACE-inhibitoryactivity of the test compound was estimated from the pressor responses to angiotensin I which were obtained before and after oral administration of the test compound.

[5] = tested on: spontaneously hypertensive rats (SHR); assay: Hypotensive activity in SHR; assay type: in vivo, rat; conditions: 3 mg/kg orally; for hypotensive activity, Blood pressure (b): measured after administration of the test compound / hypotensive activity, Blood pressure (a): measured before administration of the test compound / Duration of action: SHR; for hypotensive activity, Blood pressure (b): measured after administration of the test compound / hypotensive activity, Blood pressure (a): measured before administration of the test compound: systolic
Method: A test compound suspended in an aqueous carboxymethyl-cellulose solution was administered orally (dose: 3 mg/kg) to spontaneously hypertensive rats (SHR) fasted overnight. The systolic blood pressure of the rats was measured by the tail plethysmographic technique (The Journal of Laboratory and Clinical Medicine 78 (1971), page 957). The hypotensive activity of the test compound was estimated from the decreased level of blood pressure.

In the case of `CCCCCCCC[C@H](N[C@@H](CC)C(=O)N1C(=O)N(Cc2ccccc2)C[C@H]1C(=O)O)C(=O)O` [Example 15-(3), (4S)-1-benzyl-3-{(2S)-2-[N-((1S)-1-carboxy-n-nonyl)amino]-n-butyryl}-2-oxo-imidazolidine-4-carboxylic acid], the IC50 [1] is reported as 1.4 nM.
With `CCCCCCCC[C@H](N[C@@H](C)C(=O)N1C(=O)N(Cc2ccccc2)C[C@H]1C(=O)O)C(=O)O` [Example 9, (4S)-1-benzyl-3-{(2S)-2-[N-((1S)-1-carboxy-n-nonyl)amino]propionyl}-2-oxo-imidazolidine-4-carboxylic acid] the IC50 [1] was 1.5 nM.
Work on `CC(C)C[C@H](N[C@@H](C)C(=O)N1C(=O)N(Cc2ccccc2)C[C@H]1C(=O)O)C(=O)O` [Example 12-(2), (4S)-1-benzyl-3-{(2S)-2-[N-((1S)-1-carboxy-isopentyl)amino]propionyl}-2-oxo-imidazolidine-4-carboxylic acid] yielded an IC50 [1] of 2.1 nM.
For `C[C@H](N[C@@H](CCc1ccccc1)C(=O)O)C(=O)N1C(=O)N(Cc2ccccc2)C[C@H]1C(=O)O` [Example 8, (4S)-1-benzyl-3-{(2S)-2-[N-((1S)-1-carboxy-3-phenylpropyl)amino]propionyl}-2-oxo-imidazolidine-4-carboxylic acid], the IC50 [1] was 1.7 nM, the “ACE-inhibitory activity (%)” value (ACE [2]) was 33 ± 4% and the “ACE-inhibitory activity (%)” value (ACE [3]) was 36 ± 8%. The “mortality (mice died)” value (mice) was “no mice died”.
`CCCCCCCC[C@H](N[C@@H](C)C(=O)N1C(=O)N(C)C[C@H]1C(=O)O)C(=O)O` [Example 5, (4S)-1-methyl-3-{(2S)-2-[N-((1S)-1-carboxy-n-nonyl)amino]propionyl}-2-oxo-imidazolidine-4-carboxylic acid] was tested, and the “ACE-inhibitory activity (%)” value (ACE [2]) was 47 ± 4%, the “ACE-inhibitory activity (%)” value (ACE [3]) was 36 ± 5% and the “mortality (mice died)” value (mice) was “no mice died”.
With `C[C@H](N[C@@H](Cc1ccccc1)C(=O)O)C(=O)N1C(=O)N(Cc2ccccc2)C[C@H]1C(=O)O` [Example 14-(3), (4S)-1-benzyl-3-{(2S)-2-[N-((1S)-1-carboxy-2-phenylethyl)amino]propionyl}-2-oxo-imidazolidine-4-carboxylic acid] the IC50 [1] was 11 nM.
With `CCOC(=O)[C@H](CCc1ccccc1)N[C@@H](C)C(=O)N1C(=O)N(C)C[C@H]1C(=O)O` [Example 1, (4S)-1-methyl-3-{(2S)-2-[N-((1S)-1-ethoxycarbonyl-3-phenylpropyl)amino]propionyl}-2-oxo-imidazolidine-4-carboxylic acid] the “ACE-inhibitory activity (%)” value (ACE [4]) was 60 ± 6%, the “inhibition of ACE-activity” value (ACE [4]; rats administered angiotensin I intravenously, 1.0 mg/kg) was “about 60%” and the “hypotensive activity, Blood pressure (b): measured after administration of the test compound” value [5] was 136 ± 4 mm Hg. The “hypotensive activity, Blood pressure (a): measured before administration of the test compound” value [5] was 181 ± 3 mm Hg, the Duration of action ([5]; 3 mg/kg) was “more than 6 hours” and the Duration of action ([5]; listed as CH3, CH3, C6 H5 (CH2)2, C2 H5, 3 mg/kg) was greater than 6 h. The “decrease in blood pressure” value ([5]; spontaneously hypertensive rats) was “about 45 mmHg”.
For `CC[C@H](N[C@@H](CCc1ccccc1)C(=O)O)C(=O)N1C(=O)N(Cc2ccccc2)C[C@H]1C(=O)O` [Example 17-(2), (4S)-1-benzyl-3-{(2S)-2-[N-((1S)-1-carboxy-3-phenylpropyl)amino]-n-butyryl}-2-oxo-imidazolidine-4-carboxylic acid], the IC50 [1] was 2.3 nM.
In the case of `CCCCCCCC[C@H](N[C@@H](C)C(=O)N1C(=O)N(C)C[C@H]1C(=O)O)C(=O)OCC` [Example 3, (4S)-1-methyl-3-{(2S)-2-[N-((1S)-1-ethoxycarbonyl-n-nonyl)amino]propionyl}-2-oxo-imidazolidine-4-carboxylic acid], the “ACE-inhibitory activity (%)” value (ACE [4]) is reported as 56 ± 7%, the Duration of action [5] is reported as greater than 6 h and the “hypotensive activity, Blood pressure (b): measured after administration of the test compound” value [5] is reported as 143 ± 4 mm Hg. For the same molecule, the “hypotensive activity, Blood pressure (a): measured before administration of the test compound” value [5] was 174 ± 5 mm Hg.
`C[C@H](N[C@@H](CCc1ccccc1)C(=O)O)C(=O)N1C(=O)N(C)C[C@H]1C(=O)O` [Example 4, (4S)-1-methyl-3-{(2S)-2-[N-((1S)-1-carboxy-3-phenylpropyl)amino]propionyl}-2-oxo-imidazolidine-4-carboxylic acid] was tested, and the “ACE-inhibitory activity (%)” value (ACE [2]) was 56 ± 3% and the “ACE-inhibitory activity (%)” value (ACE [3]) was 40 ± 6%.
With `CC(C)CC[C@H](N[C@@H](C)C(=O)N1C(=O)N(Cc2ccccc2)C[C@H]1C(=O)O)C(=O)O` [Example 13-(2), (4S)-1-benzyl-3-{(2S)-2-[N-((1S)-1-carboxy-4-methyl-n-pentyl)amino]propionyl}-2-oxo-imidazolidine-4-carboxylic acid] the IC50 [1] was 3.3 nM.
